Our source for the IC50 values is patent publication US20230127046A1, “G9a INHIBITOR” (RIKEN, priority 2019, published 2023).

Each structure is given as a SMILES string. Where two headings read alike, the source gives them in different places.

The target of this assay is T1, recombinant human G9a protein (Homo sapiens, UniProt Q96KQ7).
T1 construct: purchased BPS Bioscience Inc. #51001
T1 sequence (Q96KQ7 785-1210 limits assumed): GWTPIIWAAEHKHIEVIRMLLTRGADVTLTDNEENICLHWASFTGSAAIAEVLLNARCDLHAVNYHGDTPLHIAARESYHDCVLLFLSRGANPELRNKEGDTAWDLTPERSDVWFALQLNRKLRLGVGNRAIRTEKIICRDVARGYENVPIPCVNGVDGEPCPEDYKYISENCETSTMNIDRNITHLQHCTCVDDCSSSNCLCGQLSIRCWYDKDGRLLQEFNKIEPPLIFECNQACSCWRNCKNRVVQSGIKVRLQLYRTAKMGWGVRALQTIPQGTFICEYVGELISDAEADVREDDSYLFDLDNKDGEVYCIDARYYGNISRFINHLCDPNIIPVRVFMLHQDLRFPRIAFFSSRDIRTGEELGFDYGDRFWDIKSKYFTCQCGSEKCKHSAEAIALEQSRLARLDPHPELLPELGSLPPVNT
As to the kind of experiment: G9a inhibitory activity test (ALPHA). It is filed as biochemical. As for the experimental part:
The G9a inhibitory activity of each compound was evaluated by measuring the enzymatic activity of G9a by amplified luminescence proximity homogeneous assay (ALPHA). First, 7.5 μL of a dilution of recombinant human G9a protein (BPS Bioscience Inc., #51001) diluted to 0.05 to 0.1 nM with a Tris buffer solution (50 mM Tris-HCl [pH 9.0], 50 mM NaCl, 0.01% Tween-20, 1 mM DTT), and 0.5 μL of the test compound were added to each well of a 384-well microplate (AlphaPlate-384 Shallow Well, PerkinElmer, Inc., #6008359), mixed by vortex, and incubated at room temperature for 10 minutes. 500 nM biotinylated histone H3 peptide (1-21) (AnaSpec Inc., #61702) and 150 μM SAM (Sigma-Aldrich Co. LLC, #A7007) were mixed at 1:1 in advance, and 2 μL of the mixture was added to each well, mixed by vortex, and then incubated at room temperature for 1 hour. AlphaLISA anti-H3K9me2 acceptor beads (PerkinElmer, Inc., #AL117C) and AlphaScreen streptavidin donor beads (PerkinElmer, Inc., #6760002B) were each diluted with an epigenetic buffer (PerkinElmer, Inc., AlphaLISA Epigenetics Buffer Kit #AL008C) to a final concentration of […] after addition. These dilutions were added to the reaction solution in the dark and incubated at room temperature for 1 hour in the dark. Then, measurement was performed using the EnSpire Alpha plate reader (PerkinElmer, Inc., Waltham, Mass., USA). The G9a inhibitory activity of the test compound was calculated as a compound concentration necessary for suppressing G9a enzymatic activity by 50% (IC50 value), by determining the percent inhibition of the compound when the value of a control without the addition of the compound was defined as 0% and the value of a control without the addition of the enzyme was defined as 100%.

[1] abbreviates: read-out: Inhibitory activity (G9a IC50).
Setting [2] is: biotinylated histone H3 peptide (1-21), SAM, read-out: Inhibitory activity (G9a IC50 value).

As a reminder, the IC50 is the concentration that gives 50% inhibition. `CCCCC(NC(=O)c1sc(-c2cccnc2)nc1C)C(=O)Nc1ccc(OC2CCN(C)CC2)nc1` (centres unmarked) [Example 6-99]: under setting [1], the IC50 was ≥ 200 nM.
Same read-out and setting: the figure for `Cc1c(C(=O)NC(CCC2CC2)C(=O)Nc2cccnc2)[nH]c2c1C(=O)CC(C)(C)C2` (centres unmarked) [Example 6-16] is ≥ 200 nM.
On the same count and under the same terms, the same measure for `COc1ccc(NC(=O)C(CCC2CC2)NC(=O)c2ccc(Nc3ccncc3)cc2C(F)(F)F)cn1` (centres unmarked) [Example 6-78]: < 50 nM; for `CCCCC(NC(=O)c1[nH]c2ccc(OC)cc2c1C)C(=O)Nc1ccc(OC2CCN(C)CC2)nc1` (centres unmarked) [Example 6-93]: ≥ 200 nM.
Take `CSc1ccc(NC(=O)C(CCC2CC2)NC(=O)c2[nH]c3c(c2C)C(=O)CC(C)(C)C3)cn1` (centres unmarked) [Example 1-72]: the IC50 under setting [2] was ≥ 200 nM.
The same measure, in the same setting: the same measure for `O=C(NC(CCC1CC1)C(=O)Nc1ccc(OC2COC2)nc1)c1ccc(Nc2ccncc2)cc1` (centres unmarked) [Example 1-88]: < 50 nM.
For `Cc1c(C(=O)NC(CCC2CC2)C(=O)N2CCc3c(OCCCN(C)C)cccc32)[nH]c2c1C(=O)CC(C)(C)C2` (centres unmarked) [Example 1-119], the IC50 under setting [1] is ≥ 200 nM.
Turning to `CCCC[C@H](NC(=O)c1[nH]c2c(c1C)C(=O)CC(C)(C)C2)C(=O)Nc1ccc(OC2CCN(C)CC2)nc1` [Example 6-31], the half-maximal inhibitory concentration (IC50) under setting [1] is < 50 nM.
`Cc1c(C(=O)NC(CCC2CC2)C(=O)Nc2ccc(Cl)nc2)[nH]c2c1C(=O)CC(C)(C)C2` (centres unmarked) [Example 6-7]: the 50% inhibitory concentration (IC50) under setting [1] was ≥ 200 nM.
As for `Cc1cccc2c1CCN2C(=O)C(CCC1CC1)NC(=O)c1[nH]c2c(c1C)C(=O)CC(C)(C)C2` (centres unmarked) [Example 1-116], the IC50 under setting [1] was ≥ 200 nM.
Still for that read-out and setting: the figure for `Cc1c(C(=O)N[C@@H](CCC2CC2)C(=O)N2CCc3c(OCCN(C)C)cccc32)[nH]c2c1C(=O)CC(C)(C)C2` [Example 6-107] is 50 to 200 nM.
`CCCCC(NC(=O)c1[nH]c2c(c1C)C(=O)CC(C)(C)C2)C(=O)NCc1ccc(Cl)cc1` (centres unmarked) [Example 1-43]: the IC50 under setting [2] was ≥ 200 nM.
On to `CCCCC(NC(=O)c1[nH]c2c(c1C)C(=O)CC(C)(C)C2)C(=O)Nc1cccc2cnccc12` (centres unmarked) [Example 1-94], for which, under setting [2], the IC50 is ≥ 200 nM.
`CC(C)c1c(C(=O)N[C@@H](CCC2CC2)C(=O)Nc2ccc(C#N)cc2)[nH]c2c1C(=O)CC(C)(C)C2` [Example 15-4]: the IC50 under setting [1] is 50 to 200 nM.
For `CCCCC(NC(=O)c1[nH]c2c(c1C)C(=O)CC(C)(C)C2)C(=O)Nc1cncc2ccccc12` (centres unmarked) [Example 1-15], the concentration for half-maximal inhibition (IC50) under setting [2] was ≥ 200 nM.
On to `CC(C)c1c(C(=O)NC(CCC2CC2)C(=O)N2CCc3c(OCCN(C)C)cccc32)[nH]c2c1C(=O)CC(C)(C)C2` (centres unmarked) [Example 1-142], for which the IC50 under setting [1] lay in the range of 50 to 200 nM.
Still for that read-out and setting: the same measure for `Cc1c(C(=O)NC(CCC2CC2)C(=O)N(C)Cc2ccccc2)[nH]c2c1C(=O)CC(C)(C)C2` (centres unmarked) [Example 6-19]: ≥ 200 nM.
Consider `Cc1c(C(=O)NC(CCC2CC2)C(=O)N2CCc3ccc(O)cc32)[nH]c2c1C(=O)CC(C)(C)C2` (centres unmarked) [Example 1-136], for which, under setting [1], the IC50 is ≥ 200 nM.
On to `CCCC[C@H](NC(=O)c1[nH]c2c(c1C)C(=O)CC(C)(C)C2)c1nc2ccc(OCCO)cc2[nH]1` [Example 36, (S)-N-(1-(6-(2-hydroxyethoxy)-1H-benzo[d]imidazol-2-yl)pentyl)-3,6,6-trimethyl-4-oxo-4,5,6,7-tetrahydro-1H-indole-2-carboxamide], for which, under setting [1], the IC50 was ≥ 200 nM.
For the compound `Cc1c(C(=O)NC(CCC2CC2)C(=O)Nc2ccc(N(C)C)nc2)[nH]c2c1C(=O)CC(C)(C)C2` (centres unmarked) [Example 1-74], the half-inhibitory concentration (IC50) under setting [2] is 50 to 200 nM.
As to `CCCCC(NC(=O)c1[nH]c2c(c1C)C(=O)CC(C)(C)C2)C(=O)Nc1cnccc1CC` (centres unmarked) [Example 6-22], under setting [1], the IC50 lay within 50 to 200 nM.
Still for that read-out and setting: the figure for `CCCC[C@@H](CNc1ccccc1)NC(=O)c1[nH]c2c(c1C)C(=O)CC(C)(C)C2` [Example 17-1, (S)-3,6,6-trimethyl-4-oxo-N-(1-(phenylamino)hexan-2-yl)-4,5,6,7-tetrahydro-1H-indole-2-carboxamide] is ≥ 200 nM; for `CCCCC(NC(=O)c1cc2cc(OCC)ccc2[nH]1)C(=O)Nc1ccc(OC2CCN(C)CC2)nc1` (centres unmarked) [Example 6-94] it is ≥ 200 nM.
